# ChEMBL document CHEMBL5653610, “The novel phosphodiesterase 10A inhibitor THPP-1 has antipsychotic-like effects in rat and improves cognition in rat and rhesus monkey” (Neuropharmacology, 2013)
# Active and inactive are the calls of the source. No cut-off for these calls is given here.
# How the values were obtained:
# [1] = Drug level in Wistar Hannover rat CSF at 0.3 mg/kg, po after 2 hrs by UPLC-MS analysis; format: ADME, organism-based, Cerebrospinal fluid; details: read-out: Drug uptake
# [2] = test system: Rattus norvegicus; test: In-vivo increase of GluR1 S845 phosphorylation in membrane fraction of Wistar Hannover rat striatal tissues at 30 mg/kg, po after 2 hrs by Western blot analysis relative to control; format: functional, Striatum
# [3] = Clearance in orally dosed rhesus monkey after 4 hrs by UPLC-MS analysis; format: ADME, organism-based, Macaca mulatta; details: in vivo, route po
# [4] = Drug level in Wistar Hannover rat CSF at 30 mg/kg, po after 2 hrs by UPLC-MS analysis; format: ADME, organism-based, Cerebrospinal fluid; details: read-out: Drug uptake
# [5] = Total drug level in plasma of Wistar Hannover rat not-engaged in object retrieval detour task at 10 mg/kg, po dosed for 4 days prior to testing and on day 5 drug was administered orally 2 h prior to testing and measured after 4 hrs by UPLC-MS analysis; format: ADME, organism-based; details: time 5 day
# [6] = test system: Rattus norvegicus; test: Antipsychotic activity in Wistar Hannover rat assessed as reduction in conditioned avoidance responding at 1 to 3 mg/kg, po dosed 120 mins before testing; format: functional, organism-based; details: dose 1-3 mg/kg
# [7] = Half life in orally dosed dog after 2 hrs by UPLC-MS analysis; format: ADME, organism-based, Canis lupus familiaris; details: in vivo, route po
# [8] = Unbound drug level in Wistar Hannover rat plasma at 1 mg/kg, po after 2 hrs by UPLC-MS analysis; format: ADME, organism-based; details: in vivo
# [9] = Unbound drug level in Wistar Hannover rat plasma at 3 mg/kg, po after 2 hrs by UPLC-MS analysis; format: ADME, organism-based; details: in vivo
# [10] = target: T1, cAMP and cAMP-inhibited cGMP 3',5'-cyclic phosphodiesterase 10A (Rattus norvegicus, UniProt Q9QYJ6); test: Inhibition of rat PDE10A2 assessed as inhibition of cAMP hydrolysis by fluorescence polarization assay
# T1 sequence (Q9QYJ6 whole entry): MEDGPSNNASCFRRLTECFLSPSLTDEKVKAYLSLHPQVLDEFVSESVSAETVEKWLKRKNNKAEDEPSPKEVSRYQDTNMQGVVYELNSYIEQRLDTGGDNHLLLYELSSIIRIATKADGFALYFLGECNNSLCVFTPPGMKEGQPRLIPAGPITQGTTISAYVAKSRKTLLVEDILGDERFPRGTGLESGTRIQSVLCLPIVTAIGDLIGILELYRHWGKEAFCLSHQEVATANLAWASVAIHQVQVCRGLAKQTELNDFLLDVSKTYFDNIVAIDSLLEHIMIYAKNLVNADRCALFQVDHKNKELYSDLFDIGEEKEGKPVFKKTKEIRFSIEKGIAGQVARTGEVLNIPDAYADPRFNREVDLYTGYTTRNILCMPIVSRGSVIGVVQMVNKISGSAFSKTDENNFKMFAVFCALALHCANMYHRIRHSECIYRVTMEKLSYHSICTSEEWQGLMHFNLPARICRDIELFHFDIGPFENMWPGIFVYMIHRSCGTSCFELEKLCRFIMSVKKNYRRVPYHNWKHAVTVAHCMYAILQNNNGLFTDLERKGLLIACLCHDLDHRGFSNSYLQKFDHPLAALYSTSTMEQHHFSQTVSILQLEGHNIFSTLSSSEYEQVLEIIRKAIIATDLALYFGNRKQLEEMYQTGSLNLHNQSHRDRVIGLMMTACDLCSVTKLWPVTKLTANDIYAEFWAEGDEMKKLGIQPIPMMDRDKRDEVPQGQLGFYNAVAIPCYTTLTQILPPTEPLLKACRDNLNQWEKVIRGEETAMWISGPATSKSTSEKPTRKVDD
# [11] = Total drug level in Wistar Hannover rat plasma at 3 mg/kg, po after 2 hrs by UPLC-MS analysis; format: ADME, organism-based
# [12] = Drug level in Wistar Hannover rat CSF at 1 mg/kg, po after 2 hrs by UPLC-MS analysis; format: ADME, organism-based, Cerebrospinal fluid; details: read-out: Drug uptake
# [13] = test system: Rattus norvegicus; test: Effect on concentration of cyclic nucleotides in Wistar Hannover rat striatal tissues at 3 to 30 mg/kg, po by Western blot analysis; format: functional, organism-based; details: Striatum, dose 3-30 mg/kg
# [14] = Unbound drug level in Wistar Hannover rat plasma at 10 mg/kg, po after 2 hrs by UPLC-MS analysis; format: ADME, organism-based; details: in vivo
# [15] = test system: Rattus norvegicus; test: Antipsychotic activity in Wistar Hannover rat assessed as reduction in MK-801-induced psychomotor activity at 1.5 to 4.5 mg/kg, po dosed 120 mins before MK-801 challenge and measured after 180 mins; format: functional, organism-based; details: dose 1.5-4.5 mg/kg, time 300.0 min
# [16] = Drug level in Wistar Hannover rat CSF at 3 mg/kg, po after 2 hrs by UPLC-MS analysis; format: ADME, organism-based, Cerebrospinal fluid; details: read-out: Drug uptake
# [17] = Unbound drug level in plasma of Wistar Hannover rat engaged in object retrieval detour task at 10 mg/kg, po dosed for 4 days prior to testing and on day 5 drug was administered orally 2 h prior to testing and measured after 4 hrs by UPLC-MS analysis; format: ADME, organism-based; details: in vivo, 120 h, time 5 day
# [18] = Clearance in orally dosed dog after 2 hrs by UPLC-MS analysis; format: ADME, organism-based, Canis lupus familiaris; details: in vivo, route po
# [19] = test system: Rattus norvegicus; test: Reduction in locomotor activity in Wistar Hannover rat at 1 mg/kg, po dosed 90 mins before identical objects by novel object recognition test; format: functional, organism-based
# [20] = test system: Rhesus monkey; test: Antipsychotic activity in rhesus monkey assessed as blocking of ketamine impaired performance on difficult trials at 3 mg/kg, po dosed for 4 days prior to testing and on day 5 drug was administered orally 2 h prior to testing by object retrieval detour task; format: functional, organism-based; details: Macaca mulatta, time 5.0 day
# [21] = Total drug level in Wistar Hannover rat plasma at 0.1 mg/kg, po after 2 hrs by UPLC-MS analysis; format: ADME, organism-based
# [22] = Mean drug level in plasma of Wistar Hannover rat at 10 mg/kg, po dosed as single dose after 4 hrs by UPLC-MS analysis; format: ADME, organism-based
# [23] = test system: Rattus norvegicus; test: Antipsychotic activity in Wistar Hannover rat assessed as increase in recognition at 0.3 mg/kg, po dosed 90 mins before identical objects by novel object recognition test; format: functional, organism-based
# [24] = Bioavailability in orally dosed rat after 2 hrs by UPLC-MS analysis; format: ADME, organism-based; details: in vivo, route po
# [25] = test system: Rattus norvegicus; test: Effect on phosphorylation of proteins in other brain regions (prefrontal cortex and hippocampus) in Wistar Hannover rat at 3 to 30 mg/kg, po by Western blot analysis; format: functional, organism-based; details: dose 3-30 mg/kg
# [26] = Unbound drug level in Wistar Hannover rat plasma at 0.1 mg/kg, po after 2 hrs by UPLC-MS analysis; format: ADME, organism-based; details: in vivo
# [27] = Bioavailability in orally dosed rhesus monkey after 4 hrs by UPLC-MS analysis; format: ADME, organism-based, Macaca mulatta; details: in vivo, route po
# [28] = Half life in orally dosed rat after 2 hrs by UPLC-MS analysis; format: ADME, organism-based; details: in vivo, route po
smiles,measurement,setting,value
COCCOc1nc(-c2ccc(Cl)nc2)nc2c1CN(C(=O)c1ncn3ccccc13)CC2 [THPP-1],concentration at 2 h,[1],3 nM
same,fold change (FC),[2],9.5
same,CL/F,[3],7.7 mL/min/kg
same,concentration at 2 h,[4],20.1 nM
same,concentration at 120 h,[5],2820 nM
same,Activity,[6],Dose-Dependent Effect
same,half-life,[7],7.2 h
same,Cp(f),[8],4.9 nM
same,Cp(f),[9],13.4 nM
same,Ki,[10],1.3 nM
same,concentration at 2 h,[11],745 nM
same,concentration at 2 h,[12],4.2 nM
same,Activity,[13],inactive
same,Cp(f),[14],23.8 nM
same,Activity,[15],Dose-Dependent Effect
same,concentration at 2 h,[16],8.3 nM
same,Cp(f),[17],19 nM
same,CL/F,[18],3.8 mL/min/kg
same,Activity,[19],Active
same,Activity,[20],inactive
same,concentration at 2 h,[21],32 nM
same,concentration at 4 h,[22],1530 nM
same,Activity,[23],Active
same,bioavailability,[24],47%
same,Activity,[25],inactive
same,Cp(f),[26],0.6 nM
same,bioavailability,[27],31%
same,half-life,[28],1.4 h
